Data taken from US20090123377A1, “Method for Testing Substances or Mixtures of Substances,Use of Said Method and Corresponding Test Kits” (BASF AKTIENGESELLSCHAFT, priority 2005, published 2009).
Read-outs that look alike come from different tables or passages of the source.

Columns and labels:
L-FABP = conditions: rat, in vivo
[1] = test system: liver fatty acid binding protein (L-FABP); assay: Proteomic analysis (2D gel electrophoresis) of L-FABP expression in liver of exposed rats; conditions: for L-FABP (PHEN_M_ID=3368, ETHI_F_ID=4302, HEXA_F_ID=4425) spot under the influence of treatment: 2D gel, rat liver, after 10 d (RUN2), PHEN_M male, ETHI_F and HEXA_F female rats; for amount of L-FABP in the liver, early change: after only a few hours of exposure, male animals (phenobarbital), females (alpha-hexachlorocyclohexane); for expression in the liver of L-FABP (ETHI_F_ID 4302) compared with the controls: longer exposure time and higher dosage, dose-dependent, statistical analysis of 2D gels
[2] = test system: liver fatty acid binding protein (L-FABP); conditions: rat, in vivo

In the case of `Cc1c(N)cccc1N` [2,6-diaminotoluene], the “L-FABP level by Western blotting” value (L-FABP) is reported as “no change in the L-FABP level”.

With `Cl[C@H]1[C@H](Cl)[C@H](Cl)[C@@H](Cl)[C@H](Cl)[C@H]1Cl` [alpha-hexachlorocyclohexane] the “L-FABP level by Western blotting” value (L-FABP) was “confirm the results of the proteomic analysis”, the “L-FABP (PHEN_M_ID=3368, ETHI_F_ID=4302, HEXA_F_ID=4425) spot under the influence of treatment” value (“L-FABP … of treatment” below) [1] was “disappears” and the “amount of L-FABP in the liver, early change” value [1] was “changed”. The “expression in the liver of L-FABP (ETHI_F_ID 4302) compared with the controls” value (“expression … compared with the controls” for short) [1] was “significantly less expression”.

With `CCC1(c2ccccc2)C(=O)NC(=O)NC1=O` [phenobarbital] the “L-FABP level by Western blotting” value (L-FABP) was “confirm the results of the proteomic analysis”, the “L-FABP … of treatment” value [1] was “disappears” and the “amount of L-FABP in the liver, early change” value [1] was “changed”. The “expression … compared with the controls” value [1] was “significantly less expression”.

With `ClC(Cl)(Cl)Cl` [tetrachloromethane] the “L-FABP level by Western blotting” value (L-FABP) was “decrease in L-FABP”.

With `Cc1ccc(N)cc1N` [2,4-diaminotoluene] the “L-FABP level by Western blotting” value (L-FABP) was “no change in the L-FABP level”.

In the case of `C#C[C@]1(O)CC[C@H]2[C@@H]3CCc4cc(O)ccc4[C@H]3CC[C@@]21C` [ethinylestradiol], the “L-FABP … of treatment” value [2] is reported as “disappears” and the “expression … compared with the controls” value [2] is reported as “significantly less expression”.

In the case of `c1ccoc1` [furan], the “L-FABP level by Western blotting” value (L-FABP) is reported as “decrease in L-FABP”.
